#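 Test compounds were applied to cells in 96-well plates for 48 hours at 5 doses. GI50: concentration for 50% inhibition of growth.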 Active and inactive are the calls of the source. Rule as the data show it: active = GI50 up to about 1.1 µM and inactive = higher.
# Columns and labels:
# Test in all cases: NCI-60 cell line screen, 48 h
# HT-29 = tested on: HT-29
# SF-539 = tested on: SF-539
# U-251 = tested on: U-251
# MDA-N = tested on: MDA-N
# SNB-19 = tested on: SNB-19
# OVCAR-8 = tested on: OVCAR-8
# RXF 393 = tested on: RXF 393
# MDA-MB-231 = tested on: MDA-MB-231
# UO-31 = tested on: UO-31
# SK-MEL-28 = tested on: SK-MEL-28
# BT-549 = tested on: BT-549
# HCT-15 = tested on: HCT-15
# A549 = tested on: A549
# Hs-578T = tested on: Hs-578T
# SNB-78 = tested on: SNB-78
# EKVX = tested on: EKVX
# NCI-H522 = tested on: NCI-H522
# UACC-257 = tested on: UACC-257
# M14 = tested on: M14
# HCC 2998 = tested on: HCC 2998
# SK-MEL-2 = tested on: SK-MEL-2
# MCF7 = tested on: MCF7
# SN12C = tested on: SN12C
# M19-MEL = tested on: M19-MEL
# OVCAR-4 = tested on: OVCAR-4
# NCI-H460 = tested on: NCI-H460
# NCI-H23 = tested on: NCI-H23
# IGROV-1 = tested on: IGROV-1
# SF-295 = tested on: SF-295
# CCRF-CEM = tested on: CCRF-CEM
# DMS-114 = tested on: DMS-114
# SK-OV-3 = tested on: SK-OV-3
# LXFL 529 = tested on: LXFL 529
# KM12 = tested on: KM12
# HOP-62 = tested on: HOP-62
# RPMI-8226 = tested on: RPMI-8226
# DMS-273 = tested on: DMS-273
# SNB-75 = tested on: SNB-75
# LOX IMVI = tested on: LOX IMVI
# RXF 631 = tested on: RXF 631
# HOP-92 = tested on: HOP-92
# MOLT-4 = tested on: MOLT-4
# K562 = tested on: K562
# HL-60 = tested on: HL-60
# OVCAR-3 = tested on: OVCAR-3
# PC-3 = tested on: PC-3
# ACHN = tested on: ACHN
# TK-10 = tested on: TK-10
# A498 = tested on: A498
# SW-620 = tested on: SW-620
# SK-MEL-5 = tested on: SK-MEL-5
# UACC-62 = tested on: UACC-62
# MDA-MB-435 = tested on: MDA-MB-435
# NCI-H226 = tested on: NCI-H226
# XF498 = tested on: XF498
# T47D = tested on: T47D
# NCI/ADR-RES = tested on: NCI/ADR-RES
# SR = tested on: SR
# OVCAR-5 = tested on: OVCAR-5
# KM-20L2 = tested on: KM-20L2
# DU-145 = tested on: DU-145
# SF-268 = tested on: SF-268
# CAKI-1 = tested on: CAKI-1
# HCT-116 = tested on: HCT-116
# 786-0 = tested on: 786-0
# DLD-1 = tested on: DLD-1
# Malme-3M = tested on: Malme-3M
# COLO 205 = tested on: COLO 205
# HOP-18 = tested on: HOP-18
smiles,measurement,setting,value
O=C1C(Cl)=C(N2CCN(C3=C(Cl)C(=O)c4ccccc4C3=O)CC2)C(=O)c2ccccc21,GI50,HT-29,2.23 µM (inactive)
same,GI50,SF-539,1.73 µM (inactive)
same,GI50,U-251,3.13 µM (inactive)
same,GI50,MDA-N,1.86 µM (inactive)
same,GI50,SNB-19,14.9 µM (inactive)
same,GI50,OVCAR-8,1.69 µM (inactive)
same,GI50,RXF 393,1.63 µM (inactive)
same,GI50,MDA-MB-231,1.64 µM (inactive)
same,GI50,UO-31,1.45 µM (inactive)
same,GI50,SK-MEL-28,1.94 µM (inactive)
same,GI50,BT-549,1.73 µM (inactive)
same,GI50,HCT-15,1.61 µM
same,GI50,A549,12.1 µM (inactive)
same,GI50,Hs-578T,2.22 µM (inactive)
same,GI50,SNB-78,0.61 µM (active)
same,GI50,EKVX,1.79 µM (inactive)
same,GI50,NCI-H522,0.652 µM (active)
same,GI50,UACC-257,1.46 µM (inactive)
same,GI50,M14,1.53 µM (inactive)
same,GI50,HCC 2998,2.78 µM (inactive)
same,GI50,SK-MEL-2,1.74 µM (inactive)
same,GI50,MCF7,1.72 µM (inactive)
same,GI50,SN12C,1.69 µM (inactive)
same,GI50,M19-MEL,1.53 µM (inactive)
same,GI50,OVCAR-4,1.58 µM (inactive)
same,GI50,NCI-H460,3.54 µM (inactive)
same,GI50,NCI-H23,1.58 µM (inactive)
same,GI50,IGROV-1,1.91 µM (inactive)
same,GI50,SF-295,7.62 µM (inactive)
same,GI50,CCRF-CEM,0.162 µM (active)
same,GI50,DMS-114,1.34 µM (inactive)
same,GI50,SK-OV-3,14.1 µM (inactive)
same,GI50,LXFL 529,0.297 µM (active)
same,GI50,KM12,4.81 µM (inactive)
same,GI50,HOP-62,12.4 µM (inactive)
same,GI50,RPMI-8226,0.436 µM (active)
same,GI50,DMS-273,2.14 µM (inactive)
same,GI50,SNB-75,2.86 µM (inactive)
same,GI50,LOX IMVI,1.71 µM (inactive)
same,GI50,RXF 631,1.85 µM (inactive)
same,GI50,HOP-92,1.04 µM (active)
same,GI50,MOLT-4,0.232 µM (active)
same,GI50,K562,0.121 µM (active)
same,GI50,HL-60,0.0841 µM (active)
same,GI50,OVCAR-3,1.6 µM (inactive)
same,GI50,PC-3,7.31 µM (inactive)
same,GI50,ACHN,1.64 µM (inactive)
same,GI50,TK-10,1.96 µM (inactive)
same,GI50,A498,3.49 µM (inactive)
same,GI50,SW-620,1.17 µM (inactive)
same,GI50,SK-MEL-5,1.79 µM (inactive)
same,GI50,UACC-62,1.79 µM (inactive)
same,GI50,MDA-MB-435,1.86 µM (inactive)
same,GI50,NCI-H226,4.25 µM (inactive)
same,GI50,XF498,1.36 µM (inactive)
same,GI50,T47D,0.729 µM (active)
same,GI50,NCI/ADR-RES,1.92 µM (inactive)
same,GI50,SR,0.179 µM (active)
same,GI50,OVCAR-5,6.64 µM (inactive)
same,GI50,KM-20L2,3.78 µM (inactive)
same,GI50,DU-145,4.91 µM (inactive)
same,GI50,SF-268,2.62 µM (inactive)
same,GI50,CAKI-1,1.79 µM (inactive)
same,GI50,HCT-116,1.44 µM (inactive)
same,GI50,786-0,1.82 µM (inactive)
same,GI50,DLD-1,0.428 µM (active)
same,GI50,Malme-3M,1.91 µM (inactive)
same,GI50,COLO 205,1.69 µM (inactive)
CCCCCCCCCCCCCCCCc1c(O)nc(NC#N)nc1C(=O)OC,GI50,HT-29,> 25 µM (inactive)
same,GI50,SF-539,> 25 µM (inactive)
same,GI50,U-251,> 25 µM (inactive)
same,GI50,SNB-19,> 25 µM (inactive)
same,GI50,OVCAR-8,> 25 µM (inactive)
same,GI50,RXF 393,> 25 µM (inactive)
same,GI50,UO-31,> 25 µM (inactive)
same,GI50,SK-MEL-28,> 25 µM (inactive)
same,GI50,HCT-15,> 25 µM
same,GI50,A549,> 25 µM (inactive)
same,GI50,SNB-78,> 25 µM (inactive)
same,GI50,EKVX,> 25 µM (inactive)
same,GI50,NCI-H522,> 25 µM (inactive)
same,GI50,UACC-257,> 25 µM (inactive)
same,GI50,M14,> 25 µM (inactive)
same,GI50,HCC 2998,> 25 µM (inactive)
same,GI50,SK-MEL-2,> 25 µM (inactive)
same,GI50,SN12C,> 25 µM (inactive)
same,GI50,M19-MEL,> 25 µM (inactive)
same,GI50,OVCAR-4,> 25 µM (inactive)
same,GI50,NCI-H460,> 25 µM (inactive)
same,GI50,NCI-H23,> 25 µM (inactive)
same,GI50,SF-295,> 25 µM (inactive)
same,GI50,CCRF-CEM,> 25 µM (inactive)
same,GI50,DMS-114,> 25 µM (inactive)
same,GI50,SK-OV-3,> 25 µM (inactive)
same,GI50,LXFL 529,> 25 µM (inactive)
same,GI50,KM12,> 25 µM (inactive)
same,GI50,HOP-62,> 25 µM (inactive)
same,GI50,RPMI-8226,> 25 µM (inactive)
same,GI50,SNB-75,> 25 µM (inactive)
same,GI50,LOX IMVI,> 25 µM (inactive)
same,GI50,RXF 631,> 25 µM (inactive)
same,GI50,HOP-92,> 25 µM (inactive)
same,GI50,MOLT-4,> 25 µM (inactive)
same,GI50,K562,> 25 µM (inactive)
same,GI50,HL-60,> 25 µM (inactive)
same,GI50,OVCAR-3,> 25 µM (inactive)
same,GI50,HOP-18,> 25 µM (inactive)
same,GI50,ACHN,> 25 µM (inactive)
same,GI50,TK-10,> 25 µM (inactive)
same,GI50,A498,> 25 µM (inactive)
same,GI50,SW-620,> 25 µM (inactive)
same,GI50,NCI-H226,> 25 µM (inactive)
same,GI50,XF498,> 25 µM (inactive)
same,GI50,OVCAR-5,> 25 µM (inactive)
same,GI50,KM-20L2,> 25 µM (inactive)
same,GI50,SF-268,> 25 µM (inactive)
same,GI50,HCT-116,> 25 µM (inactive)
same,GI50,786-0,> 25 µM (inactive)
same,GI50,DLD-1,> 25 µM (inactive)
same,GI50,Malme-3M,> 25 µM (inactive)
same,GI50,COLO 205,> 25 µM (inactive)

# Reference: ChEMBL document CHEMBL1201862, “PubChem BioAssay data set” (2004)
